From paper PMC2063203, “The renal effects of the water-soluble, non-folylpolyglutamate synthetase-dependent thymidylate synthase inhibitor ZD9331 in mice” (British Journal of Cancer, 1998)
Where “and” joins values, the source holds several entries; their conditions need not be identical. Equal entries are not always repeated.

Test system: DBA-2 mice
Experiment: Glomerular filtration rate (GFR) by [14C]inulin clearance after bolus drug
Assay type: in vivo
Description: British Journal of Cancer (1998) 78(11), 1457-1463 ? […] In contrast to Tomudex (ZD1694), ZD9331 may therefore be active against tumours with low FPGS activity. […] In view of the history of renal toxicity with some earlier TS inhibitors and the possible therapeutic use of bolus ZD9331, we have examined the effects of bolus ZD9331 dose and route of administration on plasma and kidney pharmacokinetics and renal function in mice. Renal function was assessed by measuring [14C]inulin clearance, and drug concentrations were assayed by reverse-phase high-performance liquid chromatography (HPLC). […] Kidney drug concentrations were slightly elevated in iv.- versus i.p.-treated animals at the low dose (50 mg kg-'), with a correspondingly larger area under the curve. However, at the highest dose (200 mg kg-'), peak kidney drug concentrations were 20-fold higher following i.v. administration than after i.p., with marked kidney retention, resulting in a 50-fold greater kidney drug exposure for the i.v. versus the i.p. route. […] These adverse effects can be readily overcome by i.p. administration, indicating the likely need for short infusions in clinical settings. […] Early studies established that nephrotoxicity may be a result of poor aqueous solubility of 2-amino compounds such as CB3717, and it was shown that 2-desamino CB3717 was more water soluble and less nephrotoxic (Jones et al, 1989; 1996). […] These polyglutamate forms also exibit intra- cellular retention, which may contribute to toxicity as well as anti- tumour activity. […] Such compounds might be expected to show activity in a different spectrum of tumours from ZD1694 and to have a more manageable toxicity profile because of the lack of retained cyto- toxic metabolites. […] MATERIALS AND METHODS Drug administration and animals The compound ZD933 1 (Figure 1) was provided as a white crystalline salt. ['4C]inulin was provided as a carboxylic acid (Amersham, UK, 250 µCi in 5 ml, specific activity 6.6 mCi mmol-') and diluted to an activity of 5 µCi ml-' in phosphate-buffered saline (PBS). ZD9331 was dissolved in 0.05 M sodium bicarbonate, 1457 1458 Ml Walton et al ~~ N Ny~~~14COOHH 0 H IN H N CH ~~~~H , 4 H3C N3 H Figure 1 The chemical structure of ZD9331 adjusted to pH 9.0 and administered either i.v. via the tail vein or i.p. at 0.01 ml g-' mouse body weight. [14C]inulin was administered at 0.05 gCi g-' (i.e. 0.01 ml g-') i.v. via the tail vein. Adult female DBA-2 mice were obtained from OLAC (Bicester, UK) and used at 8-12 weeks of age at a body weight of 15-25 g. Mice were housed in cages containing untreated sawdust and allowed access to food and water ad libitum. Sample preparation Plasma and tissue samples were prepared using standard tech- niques (Walton et al, 1996). Briefly, whole blood was obtained by cardiac puncture into heparinized syringes from halothane- anaesthetized mice. Plasma was prepared by centrifugation at 12 000 r.p.m. x 2 min in a bench-top microcentrifuge. Kidney and liver tissues were rapidly removed, washed and snap frozen on dry ice. Frozen plasma and tissues were stored at -20?C for up to 4 weeks prior to analysis. Individual samples were thawed on ice and handled rapidly. ZD9331 was extracted from whole plasma or tissue homogenates (33% w/v in 0.1 M Tris, pH 10.0) by the addition of an equal volume of acetonitrile, mixing and centrifugation and the super- natant removed for injection into the HPLC system. Samples were diluted with Tris buffer (0.1 M, pH 10.0) on to the linear part of the calibration curve prior to HPLC analysis. Extraction efficiencies were >95%. HPLC analysis Concentrations of ZD9331 were measured in biological samples using reversed phase HPLC on equipment supplied by Kontron (Watford, UK). Separations were carried out using stainless-steel columns heated at 45?C and packed with C18 Supelcosil ODS (10 cm x 4.6 mm, 5 µm bead size, Sigma, Dorset) and protected with NewGuard C18 columns (Anachem, Luton, UK). […]

## [14C]inulin [reference compound]
Normal DBA-2 mice, i.v., two independent experiments
  plasma clearance of [14C]inulin: 19.5 mL/min/kg and 21.3 mL/min/kg

## C#CCN(Cc1ccc2nc(N)[nH]c(=O)c2c1)c1ccc(C(=O)N[C@@H](CCC(=O)O)C(=O)O)cc1 [CB3717, N10-propargyl-5,8-dideazafolic acid, reference compound]
150 mg kg-1 i.p., 24 h after administration
  effect on GFR: significant renal toxicity
150 mg kg-1 i.v., 4 h after administration
  effect on GFR: significant renal toxicity
150 mg kg-1 i.v., 24 h after administration
  effect on GFR: significant renal toxicity
